From patent US11661431B2, “Thienopyrrole compounds” (Gilead Sciences, Inc., priority 2021, dated 2023)

Tests used:
TLR7 = TLR7 (Homo sapiens (Human), UniProt Q9NYK1); test: TLR7 human peripheral blood mononuclear cell (PBMC) cell-based assay (GS-986 as agonist; IL-6 and IFNα readout); details: human PBMCs, TLR7 agonist GS-986 at 400 nM, 6 hours, antagonist potency; read-out: TLR-7 EC50
Outline: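 IL-6 and IFNα released into supernatant were quantified by electrochemiluminescence immunoassay. Before that, human PBMCs at 100,000 per well received a 10-point antagonist titration for 1 h, then TLR7 agonist for 6 more hours, all at 37 °C, 5% CO2.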

TLR8 = TLR8 (Homo sapiens (Human), UniProt Q9NR97); test: TLR8 human peripheral blood mononuclear cell (PBMC) cell-based assay (Compound A as agonist; TNFα and IL12p40 readout); details: human PBMCs, TLR8 agonist Compound A at 800 nM, 6 hours, antagonist potency; read-out: TLR-8 EC50
Sequence of TLR8 (Q9NR97 27-1041): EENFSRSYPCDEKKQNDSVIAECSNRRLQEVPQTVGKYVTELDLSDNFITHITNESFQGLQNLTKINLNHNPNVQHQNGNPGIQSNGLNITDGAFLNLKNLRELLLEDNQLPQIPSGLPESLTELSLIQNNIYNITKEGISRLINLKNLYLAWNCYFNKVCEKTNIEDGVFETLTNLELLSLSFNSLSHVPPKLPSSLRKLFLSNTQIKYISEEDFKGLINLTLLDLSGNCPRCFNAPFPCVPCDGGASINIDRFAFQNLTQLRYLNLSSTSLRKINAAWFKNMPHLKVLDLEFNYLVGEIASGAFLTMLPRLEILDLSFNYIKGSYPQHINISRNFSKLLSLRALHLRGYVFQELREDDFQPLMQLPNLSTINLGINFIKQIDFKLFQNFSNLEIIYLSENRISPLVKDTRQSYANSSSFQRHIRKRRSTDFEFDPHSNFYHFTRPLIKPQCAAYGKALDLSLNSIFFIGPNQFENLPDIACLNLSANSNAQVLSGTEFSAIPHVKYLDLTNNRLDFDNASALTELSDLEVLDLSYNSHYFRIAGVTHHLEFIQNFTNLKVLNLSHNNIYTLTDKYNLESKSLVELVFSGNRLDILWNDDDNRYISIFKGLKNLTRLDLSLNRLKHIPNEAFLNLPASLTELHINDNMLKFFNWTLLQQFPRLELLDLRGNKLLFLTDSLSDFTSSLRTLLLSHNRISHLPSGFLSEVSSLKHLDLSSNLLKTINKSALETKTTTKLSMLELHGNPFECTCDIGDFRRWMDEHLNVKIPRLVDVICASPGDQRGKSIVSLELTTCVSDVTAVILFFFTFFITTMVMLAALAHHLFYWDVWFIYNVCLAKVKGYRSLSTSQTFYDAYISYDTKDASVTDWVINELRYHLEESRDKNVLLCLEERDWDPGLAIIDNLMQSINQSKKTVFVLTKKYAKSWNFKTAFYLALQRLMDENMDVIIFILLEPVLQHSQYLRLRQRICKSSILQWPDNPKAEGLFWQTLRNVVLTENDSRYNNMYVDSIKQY

Sequence of TLR7 (Q9NYK1 27-1049): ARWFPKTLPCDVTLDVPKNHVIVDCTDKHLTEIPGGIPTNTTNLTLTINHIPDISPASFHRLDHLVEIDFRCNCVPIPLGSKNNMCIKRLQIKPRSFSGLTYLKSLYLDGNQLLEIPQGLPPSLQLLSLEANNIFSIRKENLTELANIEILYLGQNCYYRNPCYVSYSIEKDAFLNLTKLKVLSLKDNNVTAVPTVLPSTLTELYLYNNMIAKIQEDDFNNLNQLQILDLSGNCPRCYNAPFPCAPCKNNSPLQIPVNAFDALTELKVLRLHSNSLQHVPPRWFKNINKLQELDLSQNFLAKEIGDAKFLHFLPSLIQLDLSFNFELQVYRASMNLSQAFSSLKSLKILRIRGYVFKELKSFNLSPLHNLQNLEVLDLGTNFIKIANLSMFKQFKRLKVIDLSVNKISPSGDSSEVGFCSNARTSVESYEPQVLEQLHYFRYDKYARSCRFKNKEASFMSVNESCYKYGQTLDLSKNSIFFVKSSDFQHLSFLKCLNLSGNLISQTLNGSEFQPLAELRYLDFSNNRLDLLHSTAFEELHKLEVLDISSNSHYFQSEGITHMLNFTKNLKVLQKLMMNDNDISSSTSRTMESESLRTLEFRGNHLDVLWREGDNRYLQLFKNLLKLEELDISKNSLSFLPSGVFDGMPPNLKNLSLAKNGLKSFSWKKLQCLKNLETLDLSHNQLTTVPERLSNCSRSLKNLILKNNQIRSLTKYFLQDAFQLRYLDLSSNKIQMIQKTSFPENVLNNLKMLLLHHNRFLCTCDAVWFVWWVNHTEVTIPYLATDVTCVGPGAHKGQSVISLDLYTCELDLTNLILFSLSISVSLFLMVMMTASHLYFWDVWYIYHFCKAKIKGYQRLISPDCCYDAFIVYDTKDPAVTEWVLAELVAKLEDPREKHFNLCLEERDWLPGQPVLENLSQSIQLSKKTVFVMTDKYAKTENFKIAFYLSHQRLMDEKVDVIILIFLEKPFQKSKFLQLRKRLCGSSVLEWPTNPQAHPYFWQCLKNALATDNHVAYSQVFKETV

| EC50 (TLR7) | EC50 (TLR8) | SMILES |
| --- | --- | --- |
| 0.09 nM | 2.89 nM | Cc1c(-c2[nH]c3sc(C45CCNCC4C5)c(C)c3c2C(C)C)cn2ncnc2c1C (stereo not drawn) [Example 77, 2-(3-azabicyclo[4.1.0]heptan-6-yl)-5-(7,8-dimethyl-[1,2,4]triazolo[1,5-a]pyridin-6-yl)-4-isopropyl-3-methyl-6H-thieno[2,3-b]pyrrole] |
| 0.42 nM | 5.44 nM | Cc1c(-c2[nH]c3sc(C4COC5(CCNCC5)C4)c(C)c3c2C(C)C)cn2ncnc2c1C (stereo not drawn) [Example 78, 3-(5-(7,8-dimethyl-[1,2,4]triazolo[1,5-a]pyridin-6-yl)-4-isopropyl-3-methyl-6H-thieno[2,3-b]pyrrol-2-yl)-1-oxa-8-azaspiro[4.5]decane] |
| 2.15 nM | 15.2 nM | Cc1c(-c2[nH]c3sc(C4COC5(CCN(CC(N)=O)CC5)C4)c(C)c3c2C(C)C)cn2ncnc2c1C (stereo not drawn) [Example 80] |
| 0.19 nM | 0.45 nM | Cc1c(-c2[nH]c3sc([C@@H]4C[C@@H]5C[C@H]4CN5C(C)C(N)=O)c(C)c3c2C(C)C)cn2ncnc2c1C (stereo partly drawn) [Example 81] |
| 0.45 nM | 0.61 nM | Cc1c(-c2[nH]c3sc([C@@H]4C[C@@H]5C[C@H]4CN5CCS(C)(=O)=O)c(C)c3c2C(C)C)cn2ncnc2c1C [Example 83] |
| 1.94 nM | 2.67 nM | Cc1c(-c2[nH]c3sc(C4CCN(C(=O)[C@@H]5COCCN5)CC4)c(C)c3c2C(C)C)cn2ncnc2c1C [Example 92] |
| 1.36 nM | 18.4 nM | Cc1c(-c2[nH]c3sc(C45CCN(CC(N)=O)CC4C5)c(C)c3c2C(C)C)cn2ncnc2c1C (stereo not drawn) [Example 93] |
| 0.05 nM | 2.3 nM | Cc1c(-c2[nH]c3sc(C4CCN(C(=O)[C@H]5C[C@@]6(CNCCO6)C5)CC4)c(C)c3c2C(C)C)cn2ncnc2c1C [Example 94, [4-[5-(7,8-dimethyl-[1,2,4]triazolo[1,5-a]pyridin-6-yl)-4-isopropyl-3-methyl-6H-thieno[2,3-b]pyrrol-2-yl]-1-piperidyl]-(5-oxa-8-azaspiro[3.5]nonan-2-yl)methanone] |
| 0.43 nM | 5.96 nM | Cc1c(-c2[nH]c3sc(C4CCN(C(=O)[C@@H]5CCCN5)CC4)c(C)c3c2C(C)C)cn2ncnc2c1C [Example 99] |
| 0.1 nM | 2.49 nM | Cc1c(-c2[nH]c3sc(C4CCN(C(=O)[C@H]5CN6CCCC6CO5)CC4)c(C)c3c2C(C)C)cn2ncnc2c1C (stereo partly drawn) [Example 104] |
| < 0.05 nM | 4.17 nM | Cc1c(-c2[nH]c3sc(C4CCN(C(=O)C5CN6CC7CC6(CO5)C7)CC4)c(C)c3c2C(C)C)cn2ncnc2c1C (stereo not drawn) [Example 105] |
| 0.34 nM | 49.3 nM | Cc1c(-c2[nH]c3sc(C4CCN(C(=O)C5(N)COC5)CC4)c(C)c3c2C(C)C)cn2ncnc2c1C [Example 106] |
| < 0.05 nM | 6.79 nM | Cc1c(-c2[nH]c3sc(C4CCN(C(=O)C56COC(CN5)C6)CC4)c(C)c3c2C(C)C)cn2ncnc2c1C (stereo not drawn) [Example 107] |
| 0.2 nM | 4.77 nM | Cc1c(-c2[nH]c3sc(C4CCN(C(=O)C56CCC(CN5)OC6)CC4)c(C)c3c2C(C)C)cn2ncnc2c1C (stereo not drawn) [Example 108] |
| < 0.05 nM | 3.45 nM | Cc1c(-c2[nH]c3sc(C4CCN(C(=O)[C@@H]5CNCCO5)CC4)c(C)c3c2C(C)C)cn2ncnc2c1C [Example 109] |
| 0.09 nM | 6.21 nM | Cc1c(-c2[nH]c3sc(C4CCN(C(=O)[C@H]5CNCCO5)CC4)c(C)c3c2C(C)C)cn2ncnc2c1C [Example 110] |
| 0.45 nM | 6.58 nM | Cc1c(-c2[nH]c3sc(-c4ccc(C5CCNCC5)cc4)c(C)c3c2C(C)C)cn2ncnc2c1C [Example 111] |
| 0.07 nM | 0.5 nM | Cc1c(-c2[nH]c3sc(C4C[C@@H]5CN[C@H]4C5)c(C)c3c2C(C)C)cn2ncnc2c1C (stereo partly drawn) [Example 112] |
| 0.54 nM | 9.8 nM | Cc1c(-c2[nH]c3sc(-c4ccc(C5CCN(CC(N)=O)CC5)cc4)c(C)c3c2C(C)C)cn2ncnc2c1C [Example 113] |
| 0.44 nM | 2.71 nM | Cc1c(-c2[nH]c3sc(C4C[C@H]5C[C@@H]4N(CC(N)=O)C5)c(C)c3c2C(C)C)cn2ncnc2c1C (stereo partly drawn) [Example 114] |
| 0.24 nM | 9.38 nM | Cc1c(-c2[nH]c3sc(-c4ccc(C5CNCCO5)cc4)c(C)c3c2C(C)C)cn2ncnc2c1C (stereo not drawn) [Example 115] |
| 0.39 nM | 27.4 nM | Cc1c(C2CCN(C(=O)C3(N4CCOCC4)CC3)CC2)sc2[nH]c(-c3cc(C)c4ncnn4c3)c(C(C)C)c12 [Example 116] |
| 0.52 nM | 16.6 nM | Cc1c(C2CCN(C(=O)[C@@H]3C[C@@H](F)CN3)CC2)sc2[nH]c(-c3cc(C)c4ncnn4c3)c(C(C)C)c12 [Example 117] |
| 0.24 nM | 15.2 nM | Cc1c(C2CCN(C(=O)[C@@H]3C[C@H](F)CN3)CC2)sc2[nH]c(-c3cc(C)c4ncnn4c3)c(C(C)C)c12 [Example 118] |
| 0.34 nM | 4.55 nM | Cc1nnc(CN2C[C@@H]3C[C@H]2C[C@H]3c2sc3[nH]c(-c4cn5ncnc5c(C)c4C)c(C(C)C)c3c2C)o1 [Example 119] |
| 0.09 nM | 1.1 nM | Cc1noc(C)c1CN1C[C@@H]2C[C@H]1C[C@H]2c1sc2[nH]c(-c3cn4ncnc4c(C)c3C)c(C(C)C)c2c1C [Example 120] |

| EC50 (TLR7) | EC50 (TLR8) | SMILES |
| --- | --- | --- |
| < 0.05 nM | 0.13 nM | Cc1nc2c(C)cc(-c3[nH]c4sc([C@@H]5C[C@@H]6C[C@H]5CN6CC(N)=O)c(C)c4c3C(C)C)cn2n1 [Example 121] |
| 0.38 nM | 1.63 nM | Cc1c(C2CCC3(C2)CN(CC(N)=O)C3)sc2[nH]c(-c3cc(C)c4ncnn4c3)c(C(C)C)c12 (stereo not drawn) [Example 122] |
| 0.16 nM | 2.15 nM | Cc1c(C2CC3(CCNCC3)C2)sc2[nH]c(-c3cc(C)c4ncnn4c3)c(C(C)C)c12 [Example 123] |
| 0.3 nM | 3.22 nM | Cc1c(C2CC3(CCN(CC(N)=O)CC3)C2)sc2[nH]c(-c3cc(C)c4ncnn4c3)c(C(C)C)c12 [Example 124] |
| 0.33 nM | 1.5 nM | Cc1cc(-c2[nH]c3sc([C@H]4C[C@@]5(CCNC5)C4)c(C)c3c2C(C)C)cn2ncnc12 [Example 125] |
| 0.24 nM | 1.74 nM | Cc1cc(-c2[nH]c3sc([C@H]4C[C@@]5(CCN(CC(N)=O)C5)C4)c(C)c3c2C(C)C)cn2ncnc12 [Example 126] |
| 0.21 nM | 1.52 nM | Cc1c(C2CCNC2)sc2[nH]c(-c3cc(C)c4ncnn4c3)c(C(C)C)c12 (stereo not drawn) [Example 127] |
| 0.27 nM | 10.7 nM | Cc1c(C2CCC3(CCNCC3)C2)sc2[nH]c(-c3cc(C)c4ncnn4c3)c(C(C)C)c12 (stereo not drawn) [Example 129] |
| 0.12 nM | 6.92 nM | Cc1nc2c(C)cc(-c3[nH]c4sc(C5CCNCC5)c(C)c4c3C(C)C)cn2n1 [Example 131] |
| 0.1 nM | 0.54 nM | Cc1cc(-c2[nH]c3sc([C@H]4C[C@]5(CCN(CC(N)=O)C5)C4)c(C)c3c2C(C)C)cn2ncnc12 [Example 132] |
| 0.6 nM | 5.06 nM | Cc1c(C2CCC3(CCN(CC(N)=O)CC3)C2)sc2[nH]c(-c3cc(C)c4ncnn4c3)c(C(C)C)c12 (stereo not drawn) [Example 133] |
| 0.74 nM | 12.6 nM | Cc1nc2c(C)cc(-c3[nH]c4sc(C5CCN(CC(N)=O)CC5)c(C)c4c3C(C)C)cn2n1 [Example 134] |
| 0.28 nM | 27 nM | Cc1nc2c(C)cc(-c3[nH]c4sc(C5CCN(C(=O)[C@H]6COCCN6)CC5)c(C)c4c3C(C)C)cn2n1 [Example 135] |
| 0.68 nM | 17.9 nM | Cc1nc2c(C)cc(-c3[nH]c4sc(C5CCN(C(=O)[C@@H]6COCCN6)CC5)c(C)c4c3C(C)C)cn2n1 [Example 136] |
| 0.73 nM | 1.71 nM | Cc1c(C2CC3(CCCNC3)C2)sc2[nH]c(-c3cc(C)c4ncnn4c3)c(C(C)C)c12 (stereo not drawn) [Example 137] |
| 0.19 nM | 0.49 nM | Cc1c(C2CC3(CCCN3)C2)sc2[nH]c(-c3cc(C)c4ncnn4c3)c(C(C)C)c12 (stereo not drawn) [Example 138] |
| 0.54 nM | 0.29 nM | Cc1c(-c2[nH]c3sc([C@@H]4C[C@@H]5C[C@H]4CN5CC(N)=O)c(C)c3c2C(C)C)cn2nc(Cl)nc2c1C [Example 139] |
| 0.91 nM | 3.45 nM | Cc1c(C2CC3(CCCN3CC(N)=O)C2)sc2[nH]c(-c3cc(C)c4ncnn4c3)c(C(C)C)c12 (stereo not drawn) [Example 140] |
| 0.42 nM | 10.6 nM | Cc1cc(-c2[nH]c3sc([C@H]4C[C@@]5(CCCN(CC(N)=O)C5)C4)c(C)c3c2C(C)C)cn2ncnc12 [Example 141] |
| 2.31 nM | 7.47 nM | Cc1cc(-c2[nH]c3sc([C@H]4C[C@]5(CCCN(CC(N)=O)C5)C4)c(C)c3c2C(C)C)cn2ncnc12 [Example 142] |
| 2.57 nM | 10.9 nM | Cc1c(-c2[nH]c3sc(C4CCN(C(=O)[C@@H]5C[C@@H]6OCC[C@@H]6N5)CC4)c(C)c3c2C(C)C)cn2ncnc2c1C [Example 143] |
| 0.25 nM | 2.03 nM | Cc1c(-c2[nH]c3sc(C4CCC5(CC4)CNCCO5)c(C)c3c2C(C)C)cn2ncnc2c1C (stereo not drawn) [Example 144, 9-(5-(7,8-dimethyl-[1,2,4]triazolo[1,5-a]pyridin-6-yl)-4-isopropyl-3-methyl-6H-thieno[2,3-b]pyrrol-2-yl)-1-oxa-4-azaspiro[5.5]undecane] |
| 0.09 nM | 1.86 nM | Cc1c([C@H]2C[C@H]3C[C@@H]2CN3CC(N)=O)sc2[nH]c(-c3cc(C)c4ncnn4c3)c(C(C)C)c12 [Example 145] |
| 0.9 nM | 12.8 nM | Cc1c(-c2[nH]c3sc([C@@H]4C[C@@H]5C[C@H]4CN5C(=O)[C@H]4COCCN4)c(C)c3c2C(C)C)cn2ncnc2c1C [Example 146] |
| 0.23 nM | 16 nM | Cc1c(-c2[nH]c3sc([C@@H]4C[C@@H]5C[C@H]4CN5C(=O)[C@H]4C[C@@H](F)CN4)c(C)c3c2C(C)C)cn2ncnc2c1C [Example 147] |
